Test results as given in the supplement of paper PMC10307832.

Key:
Assay in all cases: relative viability (nuclei count vs DMSO), 5 days (fraction); higher = more cells survive
Tipifarnib + Phenformin = compound: Cn1cncc1[C@@](N)(c1ccc(Cl)cc1)c1ccc2c(c1)c(-c1cccc(Cl)c1)cc(=O)n2C [Tipifarnib] + N=C(N)NC(=N)NCCc1ccccc1 [Phenformin] (partner 250 µM)
Method in brief: (§1)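 Lung cancer cell lines in 1536-well plates got either a single drug or a fixed anchor-drug dose together with five library-drug doses (not always all listed) in √10 steps, by pin tool, on the day after seeding. Nuclei were counted after 5 days, and relative viability is the treated-to-vehicle ratio of nuclei counts. Values are medians of duplicate plates.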

Tipifarnib + Pictilisib = compound: Cn1cncc1[C@@](N)(c1ccc(Cl)cc1)c1ccc2c(c1)c(-c1cccc(Cl)c1)cc(=O)n2C [Tipifarnib] + CS(=O)(=O)N1CCN(Cc2cc3nc(-c4cccc5[nH]ncc45)nc(N4CCOCC4)c3s2)CC1 [Pictilisib] (partner 1 µM)
Method in brief: as §1

Tipifarnib + AZD7762 = compound: Cn1cncc1[C@@](N)(c1ccc(Cl)cc1)c1ccc2c(c1)c(-c1cccc(Cl)c1)cc(=O)n2C [Tipifarnib] + NC(=O)Nc1cc(-c2cccc(F)c2)sc1C(=O)N[C@H]1CCCNC1 [AZD7762] (partner 0.2 µM)
Method in brief: as §1

Tipifarnib + Alpelisib = compound: Cn1cncc1[C@@](N)(c1ccc(Cl)cc1)c1ccc2c(c1)c(-c1cccc(Cl)c1)cc(=O)n2C [Tipifarnib] + Cc1nc(NC(=O)N2CCC[C@H]2C(N)=O)sc1-c1ccnc(C(C)(C)C(F)(F)F)c1 [Alpelisib] (partner 2 µM)
Method in brief: as §1

| Cell Line | relative viability (Tipifarnib + Phenformin; first compound 0.01 µM) | relative viability (Tipifarnib + Phenformin; first compound 0.03162 µM) | relative viability (Tipifarnib + Phenformin; first compound 0.1 µM) | relative viability (Tipifarnib + Phenformin; first compound 0.3162 µM) | relative viability (Tipifarnib + Phenformin; first compound 1 µM) | relative viability (Tipifarnib + Pictilisib; first compound 0.01 µM) | relative viability (Tipifarnib + Pictilisib; first compound 0.03162 µM) | relative viability (Tipifarnib + Pictilisib; first compound 0.1 µM) | relative viability (Tipifarnib + Pictilisib; first compound 0.3162 µM) | relative viability (Tipifarnib + Pictilisib; first compound 1 µM) | relative viability (Tipifarnib + AZD7762; first compound 0.01 µM) | relative viability (Tipifarnib + AZD7762; first compound 0.03162 µM) | relative viability (Tipifarnib + AZD7762; first compound 0.1 µM) | relative viability (Tipifarnib + AZD7762; first compound 0.3162 µM) | relative viability (Tipifarnib + AZD7762; first compound 1 µM) | relative viability (Tipifarnib + Alpelisib; first compound 0.01 µM) | relative viability (Tipifarnib + Alpelisib; first compound 0.03162 µM) | relative viability (Tipifarnib + Alpelisib; first compound 0.1 µM) | relative viability (Tipifarnib + Alpelisib; first compound 0.3162 µM) | relative viability (Tipifarnib + Alpelisib; first compound 1 µM) |
| --- | --- | --- | --- | --- | --- | --- | --- | --- | --- | --- | --- | --- | --- | --- | --- | --- | --- | --- | --- | --- |
| HCC-366 | 0.619 | 0.569 | 0.387 | 0.313 | 0.0592 | 0.145 | 0.133 | 0.0968 | 0.0769 | 0.0755 | 0.281 | 0.304 | 0.171 | 0.0878 | 0.0371 | 0.559 | 0.47 | 0.272 | 0.159 | 0.0543 |
| HCC-827 | 0.425 | 0.413 | 0.406 | 0.34 | 0.376 | 0.955 | 0.905 | 0.775 | 0.653 | 0.675 | 0.236 | 0.287 | 0.206 | 0.207 | 0.178 | 1.04 | 1.03 | 0.767 | 0.626 | 0.667 |
| HOP-62 | 0.573 | 0.418 | 0.403 | 0.353 | 0.347 | 0.506 | 0.158 | 0.24 | 0.3 | 0.26 | 0.573 | 0.169 | 0.196 | 0.152 | 0.261 | 1.31 | 0.824 | 0.377 | 0.281 | 0.325 |
| IA-LM |  |  |  |  |  | 0.133 | 0.121 | 0.136 | 0.114 | 0.114 |  |  |  |  |  | 0.362 | 0.289 | 0.309 | 0.213 | 0.214 |
| LC-2-ad | 0.566 | 0.532 | 0.498 | 0.568 | 0.372 | 0.515 | 0.371 | 0.255 | 0.325 | 0.191 | 0.813 | 0.68 | 0.561 | 0.474 | 0.359 | 0.829 | 0.54 | 0.375 | 0.411 | 0.321 |
| LCLC-97TM1 | 0.423 | 0.382 | 0.446 | 0.355 | 0.231 | 0.179 | 0.147 | 0.12 | 0.193 | 0.108 | 0.179 | 0.225 | 0.216 | 0.17 | 0.0822 | 0.218 | 0.181 | 0.2 | 0.17 | 0.173 |
| NCI-H520 | 0.591 | 0.319 | 0.447 | 0.425 | 0.267 | 0.283 | 0.227 | 0.243 | 0.275 | 0.166 |  |  |  |  |  | 1.11 | 0.823 | 0.845 | 0.458 | 0.471 |
| NCI-H661 | 0.29 | 0.283 | 0.275 | 0.261 | 0.309 | 0.441 | 0.535 | 0.419 | 0.474 | 0.326 |  |  |  |  |  | 0.648 | 0.901 | 0.399 | 0.598 | 0.446 |
| NCI-H1299 |  |  |  |  |  | 0.64 | 0.837 | 0.422 | 0.35 | 0.298 |  |  |  |  |  | 1.04 | 1.04 | 0.971 | 0.973 | 0.941 |
| NCI-H1563 | 0.631 | 0.696 | 0.655 | 0.637 | 0.577 | 0.669 | 0.64 | 0.655 | 0.628 | 0.589 |  |  |  |  |  | 0.991 | 0.867 | 0.862 | 0.893 | 0.757 |
| NCI-H1648 |  |  |  |  |  |  |  |  |  |  | 0.625 | 0.535 | 0.681 | 0.551 | 0.341 |  |  |  |  |  |
| NCI-H1650 | 0.291 | 0.209 | 0.196 | 0.262 | 0.187 | 0.409 | 0.228 | 0.337 | 0.265 | 0.191 |  |  |  |  |  |  |  |  |  |  |
| NCI-H1703 |  |  |  |  |  | 0.239 | 0.234 | 0.201 | 0.21 | 0.214 | 0.139 | 0.111 | 0.125 | 0.0872 | 0.14 | 0.267 | 0.275 | 0.147 | 0.272 | 0.21 |
| NCI-H2009 | 0.525 | 0.492 | 0.388 | 0.386 | 0.352 | 0.981 | 0.579 | 0.524 | 0.466 | 0.319 |  |  |  |  |  | 1.18 | 1.06 | 0.899 | 0.689 | 0.679 |
| NCI-H2023 | 0.415 | 0.381 | 0.273 | 0.272 | 0.236 | 0.238 | 0.212 | 0.203 | 0.169 | 0.159 |  |  |  |  |  | 0.595 | 0.442 | 0.391 | 0.326 | 0.334 |
| NCI-H2228 | 0.25 | 0.286 | 0.379 | 0.222 | 0.138 | 0.369 | 0.388 | 0.325 | 0.202 | 0.243 |  |  |  |  |  | 0.997 | 0.475 | 0.473 | 0.537 | 0.371 |
| NCI-H2342 | 0.676 | 0.649 | 0.491 | 0.487 | 0.399 |  |  |  |  |  | 0.509 | 0.506 | 0.36 | 0.449 | 0.39 |  |  |  |  |  |
| SK-LU-1 | 0.528 | 0.324 | 0.307 | 0.275 | 0.283 | 0.574 | 0.568 | 0.424 | 0.378 | 0.299 |  |  |  |  |  | 1.06 | 0.655 | 0.528 | 0.49 | 0.516 |
| SK-MES-1 | 0.659 | 0.663 | 0.651 | 0.619 | 0.57 | 0.349 | 0.401 | 0.395 | 0.247 | 0.239 |  |  |  |  |  | 1.03 | 0.897 | 0.634 | 0.648 | 0.501 |
| SW 1573 | 0.362 | 0.299 | 0.268 | 0.156 | 0.197 | 0.492 | 0.426 | 0.397 | 0.289 | 0.236 |  |  |  |  |  | 0.667 | 0.718 | 0.449 | 0.44 | 0.331 |
| UMC-11 | 0.332 | 0.311 | 0.303 | 0.251 | 0.238 | 0.676 | 0.511 | 0.495 | 0.445 | 0.31 |  |  |  |  |  | 0.939 | 0.691 | 0.504 | 0.409 | 0.487 |
